Data as given in article PMC8213057, “Targeting ALK2: An Open Science Approach to Developing Therapeutics for the Treatment of Diffuse Intrinsic Pontine Glioma” (Journal of Medicinal Chemistry, 2020).

How the values were obtained:
[1] = tested on: hERG
[2] = target: WNK1 (Homo sapiens, UniProt Q9H4A3); experiment: biochemical; conditions: read-out: % enzyme activity, 1 μM; Run 1, Run 2
[3] = target: CK1d (Homo sapiens, UniProt P48730); conditions: 1 μM; Run 1, Run 2
[4] = target: CDK7/cyclin H (Homo sapiens, UniProt P50613); conditions: 1 μM; Run 1, Run 2
CDK7/cyclin H, sequence (P50613 whole entry): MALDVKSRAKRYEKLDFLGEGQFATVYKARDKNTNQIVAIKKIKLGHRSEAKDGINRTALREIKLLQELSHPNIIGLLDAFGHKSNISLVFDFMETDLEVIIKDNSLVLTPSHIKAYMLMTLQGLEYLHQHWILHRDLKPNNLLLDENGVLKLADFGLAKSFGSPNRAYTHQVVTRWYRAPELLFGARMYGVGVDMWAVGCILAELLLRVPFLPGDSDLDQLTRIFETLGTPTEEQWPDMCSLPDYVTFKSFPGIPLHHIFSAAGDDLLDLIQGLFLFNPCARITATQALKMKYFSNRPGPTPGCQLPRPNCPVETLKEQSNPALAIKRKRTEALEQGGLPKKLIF
CDK7/cyclin H, sequence (P51946 whole entry partner): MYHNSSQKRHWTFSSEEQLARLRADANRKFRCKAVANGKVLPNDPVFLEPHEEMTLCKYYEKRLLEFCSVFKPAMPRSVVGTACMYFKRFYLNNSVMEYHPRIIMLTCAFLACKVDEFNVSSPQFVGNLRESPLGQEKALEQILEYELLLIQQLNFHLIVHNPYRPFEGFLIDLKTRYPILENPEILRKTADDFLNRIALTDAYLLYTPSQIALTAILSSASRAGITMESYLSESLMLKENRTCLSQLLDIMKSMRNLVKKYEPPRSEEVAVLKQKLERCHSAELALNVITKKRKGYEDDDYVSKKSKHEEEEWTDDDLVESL
CDK7/cyclin H, sequence (P51948 whole entry partner): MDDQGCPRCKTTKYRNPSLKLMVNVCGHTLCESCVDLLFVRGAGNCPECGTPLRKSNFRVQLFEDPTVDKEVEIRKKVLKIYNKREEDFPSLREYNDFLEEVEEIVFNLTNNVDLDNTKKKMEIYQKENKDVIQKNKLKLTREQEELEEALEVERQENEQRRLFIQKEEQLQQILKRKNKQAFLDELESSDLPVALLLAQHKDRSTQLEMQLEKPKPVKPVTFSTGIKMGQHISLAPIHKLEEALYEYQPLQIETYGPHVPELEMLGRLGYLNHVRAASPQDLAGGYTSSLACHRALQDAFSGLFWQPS

[5] = target: T1, TSSK2 (Homo sapiens, UniProt Q96PF2); experiment: biochemical; conditions: read-out: % enzyme activity, 1 μM; Run 1, Run 2
T1 sequence (Q96PF2 1-358): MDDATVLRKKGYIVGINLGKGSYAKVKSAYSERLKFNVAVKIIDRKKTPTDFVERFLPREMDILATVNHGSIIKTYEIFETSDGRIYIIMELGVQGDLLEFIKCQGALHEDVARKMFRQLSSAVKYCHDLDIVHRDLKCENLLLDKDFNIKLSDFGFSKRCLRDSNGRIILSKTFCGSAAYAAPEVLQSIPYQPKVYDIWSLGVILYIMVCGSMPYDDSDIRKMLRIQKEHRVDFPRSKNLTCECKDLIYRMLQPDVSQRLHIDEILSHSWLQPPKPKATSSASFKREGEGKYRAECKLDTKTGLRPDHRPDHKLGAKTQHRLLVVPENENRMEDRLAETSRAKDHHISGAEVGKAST

[6] = target: CAMK1g (Homo sapiens, UniProt Q96NX5); experiment: biochemical; conditions: read-out: % enzyme activity, 1 μM; Run 1, Run 2
CAMK1g, sequence (Q96NX5 whole entry): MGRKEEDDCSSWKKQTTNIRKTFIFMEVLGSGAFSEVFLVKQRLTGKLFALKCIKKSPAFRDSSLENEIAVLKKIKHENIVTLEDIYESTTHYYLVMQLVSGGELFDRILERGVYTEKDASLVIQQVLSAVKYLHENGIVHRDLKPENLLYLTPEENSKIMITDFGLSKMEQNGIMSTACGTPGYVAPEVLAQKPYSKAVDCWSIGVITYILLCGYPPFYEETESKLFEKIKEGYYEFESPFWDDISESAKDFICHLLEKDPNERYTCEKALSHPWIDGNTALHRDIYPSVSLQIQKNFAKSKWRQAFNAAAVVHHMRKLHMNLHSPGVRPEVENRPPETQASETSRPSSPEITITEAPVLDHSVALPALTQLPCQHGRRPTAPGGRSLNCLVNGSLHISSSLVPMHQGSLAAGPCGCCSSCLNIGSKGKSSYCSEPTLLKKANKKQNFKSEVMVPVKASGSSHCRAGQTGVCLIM

[7] = target: PHKg1 (Homo sapiens, UniProt Q16816); experiment: biochemical; conditions: read-out: % enzyme activity, 1 μM; Run 1, Run 2
PHKg1, sequence (Q16816 whole entry): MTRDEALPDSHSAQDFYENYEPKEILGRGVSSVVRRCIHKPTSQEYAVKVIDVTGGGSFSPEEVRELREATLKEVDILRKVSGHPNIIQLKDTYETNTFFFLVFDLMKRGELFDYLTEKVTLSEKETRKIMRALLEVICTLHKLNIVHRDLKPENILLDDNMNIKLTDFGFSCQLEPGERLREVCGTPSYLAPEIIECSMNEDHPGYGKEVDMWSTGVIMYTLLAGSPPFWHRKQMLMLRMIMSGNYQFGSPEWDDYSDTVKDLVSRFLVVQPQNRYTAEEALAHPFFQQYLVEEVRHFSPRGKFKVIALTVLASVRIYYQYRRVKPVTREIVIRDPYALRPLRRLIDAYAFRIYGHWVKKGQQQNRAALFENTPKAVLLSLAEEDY

[8] = target: FRK/PTK5 (Homo sapiens, UniProt P42685); experiment: biochemical; conditions: read-out: % enzyme activity, 1 μM; Run 1, Run 2
[9] = target: TESK2 (Homo sapiens, UniProt Q96S53); conditions: 1 μM; Run 1, Run 2
TESK2, sequence (Q96S53 whole entry): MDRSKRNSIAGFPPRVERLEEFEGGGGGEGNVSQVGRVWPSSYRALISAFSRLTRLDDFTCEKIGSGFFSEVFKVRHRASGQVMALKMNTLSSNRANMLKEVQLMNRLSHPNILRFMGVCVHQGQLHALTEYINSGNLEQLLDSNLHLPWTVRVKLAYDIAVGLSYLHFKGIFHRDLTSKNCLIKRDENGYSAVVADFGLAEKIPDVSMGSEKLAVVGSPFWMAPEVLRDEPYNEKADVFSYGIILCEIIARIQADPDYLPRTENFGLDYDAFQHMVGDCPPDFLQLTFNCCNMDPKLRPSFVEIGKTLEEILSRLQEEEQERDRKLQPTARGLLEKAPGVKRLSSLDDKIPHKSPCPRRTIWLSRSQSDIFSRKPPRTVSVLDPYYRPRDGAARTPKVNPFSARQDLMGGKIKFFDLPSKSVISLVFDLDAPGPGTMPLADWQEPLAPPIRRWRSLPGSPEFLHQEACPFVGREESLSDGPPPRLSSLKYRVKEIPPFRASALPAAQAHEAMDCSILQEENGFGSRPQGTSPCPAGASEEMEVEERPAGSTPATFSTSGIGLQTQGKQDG

[10] = target: WEE1 (Homo sapiens, UniProt P30291); conditions: 1 μM; Run 1, Run 2
WEE1, sequence (P30291 whole entry, species assumed): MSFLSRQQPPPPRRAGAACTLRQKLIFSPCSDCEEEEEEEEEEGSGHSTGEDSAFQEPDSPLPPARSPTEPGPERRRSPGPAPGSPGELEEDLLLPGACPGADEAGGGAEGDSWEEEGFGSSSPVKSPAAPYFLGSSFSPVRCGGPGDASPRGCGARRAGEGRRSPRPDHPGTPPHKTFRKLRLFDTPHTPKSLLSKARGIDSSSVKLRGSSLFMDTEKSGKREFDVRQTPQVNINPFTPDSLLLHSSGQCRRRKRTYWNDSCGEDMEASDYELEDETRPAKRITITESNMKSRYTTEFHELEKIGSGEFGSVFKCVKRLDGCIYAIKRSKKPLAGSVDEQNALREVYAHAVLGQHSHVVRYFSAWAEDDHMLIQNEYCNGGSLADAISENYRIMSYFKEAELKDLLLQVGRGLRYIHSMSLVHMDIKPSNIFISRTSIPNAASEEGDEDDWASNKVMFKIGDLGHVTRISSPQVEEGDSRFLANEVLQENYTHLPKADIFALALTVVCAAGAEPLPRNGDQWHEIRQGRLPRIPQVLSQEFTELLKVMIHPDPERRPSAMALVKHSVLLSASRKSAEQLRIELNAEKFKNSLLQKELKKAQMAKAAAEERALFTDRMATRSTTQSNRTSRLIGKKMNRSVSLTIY

[11] = target: T2, AXL (Homo sapiens, UniProt P30530); experiment: biochemical; conditions: read-out: % enzyme activity, 1 μM; Run 1, Run 2
T2 sequence (P30530 26-894): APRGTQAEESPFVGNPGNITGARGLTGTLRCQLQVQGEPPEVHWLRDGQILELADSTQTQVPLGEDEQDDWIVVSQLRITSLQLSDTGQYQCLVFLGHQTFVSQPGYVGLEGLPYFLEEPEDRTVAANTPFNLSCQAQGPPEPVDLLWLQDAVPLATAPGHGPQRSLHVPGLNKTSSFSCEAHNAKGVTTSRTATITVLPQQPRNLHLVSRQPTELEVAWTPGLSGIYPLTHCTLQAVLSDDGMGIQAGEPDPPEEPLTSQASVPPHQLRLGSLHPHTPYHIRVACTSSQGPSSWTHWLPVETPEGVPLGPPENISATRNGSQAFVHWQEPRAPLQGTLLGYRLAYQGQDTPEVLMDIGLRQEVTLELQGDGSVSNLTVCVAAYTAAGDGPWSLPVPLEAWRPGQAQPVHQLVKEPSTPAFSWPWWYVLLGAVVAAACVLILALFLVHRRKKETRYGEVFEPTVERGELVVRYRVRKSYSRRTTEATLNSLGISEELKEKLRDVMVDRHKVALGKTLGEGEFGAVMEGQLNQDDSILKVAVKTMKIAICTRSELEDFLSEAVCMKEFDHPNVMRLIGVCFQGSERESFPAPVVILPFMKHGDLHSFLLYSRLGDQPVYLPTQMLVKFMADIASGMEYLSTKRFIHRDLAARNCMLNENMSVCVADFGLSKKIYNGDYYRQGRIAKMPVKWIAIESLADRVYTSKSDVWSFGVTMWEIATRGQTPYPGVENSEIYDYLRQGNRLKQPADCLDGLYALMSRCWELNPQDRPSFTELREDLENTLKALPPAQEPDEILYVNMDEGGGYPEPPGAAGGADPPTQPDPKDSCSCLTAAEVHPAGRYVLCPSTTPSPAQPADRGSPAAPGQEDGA

[12] = target: T3, HGK/MAP4K4 (Homo sapiens, UniProt O95819); experiment: 375-member kinase panel; type: biochemical; conditions: Run 1, Run 2; for % enzyme activity: 1 μM; for remaining activity at 1 µM: read-out: % enzyme activity, 1 μM
T3 construct: purchased Reaction Biology Corporation
T3 sequence (O95819 whole entry): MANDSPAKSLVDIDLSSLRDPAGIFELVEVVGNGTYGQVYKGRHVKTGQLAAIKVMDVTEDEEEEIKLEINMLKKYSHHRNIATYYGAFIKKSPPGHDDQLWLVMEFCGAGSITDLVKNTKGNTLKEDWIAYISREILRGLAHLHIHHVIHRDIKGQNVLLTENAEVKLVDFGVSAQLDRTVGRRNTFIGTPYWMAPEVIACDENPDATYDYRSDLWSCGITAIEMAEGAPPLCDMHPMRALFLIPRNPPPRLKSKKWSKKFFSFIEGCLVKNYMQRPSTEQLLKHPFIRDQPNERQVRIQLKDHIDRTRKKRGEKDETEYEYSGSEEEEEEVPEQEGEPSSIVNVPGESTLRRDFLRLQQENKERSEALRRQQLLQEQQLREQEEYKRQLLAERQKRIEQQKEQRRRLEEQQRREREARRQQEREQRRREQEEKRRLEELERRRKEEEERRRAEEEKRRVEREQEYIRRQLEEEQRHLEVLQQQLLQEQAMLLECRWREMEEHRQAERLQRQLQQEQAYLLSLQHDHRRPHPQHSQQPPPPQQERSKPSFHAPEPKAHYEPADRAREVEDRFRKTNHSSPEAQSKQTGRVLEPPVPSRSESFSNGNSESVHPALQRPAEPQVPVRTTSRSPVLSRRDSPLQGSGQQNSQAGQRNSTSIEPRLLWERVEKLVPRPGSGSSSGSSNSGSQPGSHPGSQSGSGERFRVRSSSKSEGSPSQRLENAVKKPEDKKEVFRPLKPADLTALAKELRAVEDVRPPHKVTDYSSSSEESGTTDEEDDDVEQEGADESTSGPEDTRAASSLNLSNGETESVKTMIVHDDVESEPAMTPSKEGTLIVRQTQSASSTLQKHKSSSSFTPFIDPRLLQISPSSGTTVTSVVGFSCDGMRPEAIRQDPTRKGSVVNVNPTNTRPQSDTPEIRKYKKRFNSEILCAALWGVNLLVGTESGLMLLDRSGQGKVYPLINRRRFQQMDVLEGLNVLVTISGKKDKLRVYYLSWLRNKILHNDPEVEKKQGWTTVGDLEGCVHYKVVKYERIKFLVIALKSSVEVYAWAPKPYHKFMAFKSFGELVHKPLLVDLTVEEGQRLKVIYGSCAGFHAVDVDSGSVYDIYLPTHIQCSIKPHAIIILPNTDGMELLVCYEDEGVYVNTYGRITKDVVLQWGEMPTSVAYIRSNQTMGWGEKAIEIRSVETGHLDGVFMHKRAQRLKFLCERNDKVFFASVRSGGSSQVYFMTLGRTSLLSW

[13] = target: T4, IKKa/CHUK (Homo sapiens, UniProt O15111); experiment: biochemical; conditions: read-out: % enzyme activity, 1 μM; Run 1, Run 2
T4 sequence (O15111 1-745): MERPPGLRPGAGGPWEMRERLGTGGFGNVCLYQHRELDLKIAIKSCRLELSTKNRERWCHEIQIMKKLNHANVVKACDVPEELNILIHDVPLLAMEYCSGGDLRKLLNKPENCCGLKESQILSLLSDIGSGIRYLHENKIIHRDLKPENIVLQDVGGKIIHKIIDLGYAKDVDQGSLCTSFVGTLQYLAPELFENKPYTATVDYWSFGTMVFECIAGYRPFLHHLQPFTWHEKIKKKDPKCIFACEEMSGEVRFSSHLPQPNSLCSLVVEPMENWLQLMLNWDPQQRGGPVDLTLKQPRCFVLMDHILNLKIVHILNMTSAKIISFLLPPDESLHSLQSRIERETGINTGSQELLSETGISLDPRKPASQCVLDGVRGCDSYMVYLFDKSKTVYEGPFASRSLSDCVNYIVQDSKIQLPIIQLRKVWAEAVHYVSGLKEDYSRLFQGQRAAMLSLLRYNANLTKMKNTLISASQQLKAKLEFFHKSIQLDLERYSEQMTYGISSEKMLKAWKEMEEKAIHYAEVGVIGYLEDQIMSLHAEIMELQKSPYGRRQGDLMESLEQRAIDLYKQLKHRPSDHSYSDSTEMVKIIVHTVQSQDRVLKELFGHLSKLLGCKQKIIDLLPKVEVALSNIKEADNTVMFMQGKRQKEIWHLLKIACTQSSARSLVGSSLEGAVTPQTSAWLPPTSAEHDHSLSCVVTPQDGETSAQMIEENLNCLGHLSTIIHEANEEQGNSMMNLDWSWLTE

CK1d, sequence (P48730 whole entry): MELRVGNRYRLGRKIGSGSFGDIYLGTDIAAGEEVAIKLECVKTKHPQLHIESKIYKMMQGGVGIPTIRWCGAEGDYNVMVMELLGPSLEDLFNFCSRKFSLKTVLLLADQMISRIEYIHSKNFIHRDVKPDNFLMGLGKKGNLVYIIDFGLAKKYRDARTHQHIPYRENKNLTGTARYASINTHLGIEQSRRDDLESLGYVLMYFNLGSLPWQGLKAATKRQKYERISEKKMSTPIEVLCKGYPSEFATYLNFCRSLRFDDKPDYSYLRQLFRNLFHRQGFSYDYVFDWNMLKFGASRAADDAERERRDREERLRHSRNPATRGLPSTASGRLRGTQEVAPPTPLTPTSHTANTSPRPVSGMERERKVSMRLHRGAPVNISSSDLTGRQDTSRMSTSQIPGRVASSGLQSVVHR

| SMILES | IC50 [1] | hERG inhibition [1] | remaining activity at 1 µM [2] | % enzyme activity [3] | % enzyme activity [4] | remaining activity at 1 µM [5] | remaining activity at 1 µM [6] | remaining activity at 1 µM [7] | remaining activity at 1 µM [8] | % enzyme activity [9] | % enzyme activity [10] | remaining activity at 1 µM [11] | % enzyme activity [12] | remaining activity at 1 µM [12] | remaining activity at 1 µM [13] |
| --- | --- | --- | --- | --- | --- | --- | --- | --- | --- | --- | --- | --- | --- | --- | --- |
| COc1cc(-c2cncc(-c3ccc(N4CCN(C)CC4)cc3)c2C)cc(F)c1C(N)=O [Compound 26a, 2-Fluoro-6-methoxy-4-(4-methyl-5-(4-(4-methylpiperazin-1-yl)phenyl)pyridin-3-yl)benzamide] | >30 µM | > 30 µM | 108% | 94.27% | 93.27% | 100% | 102% | 85.6% | 101% | 93.89% | 104.15% | 81.8% | 20.97% | 22% | 83.3% |
| COc1cc(-c2cncc(-c3ccc(N4C[C@@H](C)N(C)[C@@H](C)C4)cc3)c2C)cc(F)c1C(N)=O [Compound 26c, 2-Fluoro-6-methoxy-4-(4-methyl-5-(4-((3R,5S)-3,4,5-trimethylpiperazin-1-yl)phenyl)pyridin-3-yl)benzamide] | – | 18.8 µM | 104% | 108.05% | 95.50% | 100% | 108% | 97% | 98.2% | 92.03% | 99.73% | 91.3% | 28.35% | 30.6% | 87.4% |
